Source: patent publication US20010047016A1, “Method for treating depression” (priority 2000, published 2001)

Columns and labels:
[1] = system: other melatonin receptors; conditions: cited from earlier work
[2] = target: T1, MT-3 melatonin sites of hamster brain (Mesocricetus auratus, UniProt A0ABM2YAB8); conditions: cited from earlier work
T1 construct: MT-3 melatonin sites of hamster brain; host or cells: hamster brain
T1 sequence (A0ABM2YAB8 1-231): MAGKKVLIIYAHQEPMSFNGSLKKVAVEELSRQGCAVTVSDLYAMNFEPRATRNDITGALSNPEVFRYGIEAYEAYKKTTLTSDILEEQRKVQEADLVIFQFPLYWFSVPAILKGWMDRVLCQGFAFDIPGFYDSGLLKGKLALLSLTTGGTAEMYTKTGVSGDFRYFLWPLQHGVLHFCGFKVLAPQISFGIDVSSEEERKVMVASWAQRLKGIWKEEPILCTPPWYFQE

C57BL/6J mice = assay: tail suspension test in C57BL/6J mice; type: in vivo
Description: The tail suspension test is a variant of the “behavioral despair” forced swimming test in which immobility is induced by suspending an animal by the tail (Steru et al., 1985). […] C57BL/6 mice ([…] 21-25g) were housed, ten per cage, in light controlled chambers (12 hr. light/12 hr. dark cycle-lights on at 08.00 hr., off at 20.00 hr.) with free access to food and water. Each animal was tested in a chamber made out of white non-transparent plastics. The C57BL/6J mice are suitable animals for such a study since no enzymes of melatonin biosynthesis have been found in the pineal glands of this strain of mice (Ebihara et al., 1986). Therefore, the observed effects could not be attributed to melatonin. The chamber was 17 cm W×25 cm H×15 cm D with a hook (4 cm) attached to the center of the ceiling. There was no front wall to allow for the observation of the mouse behavior. The mouse was hung on a hook by an adhesive tape placed 15 mm from the extremity of its tail. The animal was positioned with its stomach towards the investigator to assure the observation of the total immobility. The distance between the floor of the chamber and the nose of the animal was 10 cm. Immobility was scored as a sum of the time periods during which the animal hung passively and motionless for at least 2 sec. The total period of observation was 6 min. Experiments were conducted between 10.00 hr. and 14.00 hr. in a quiet room. The source of the light (50 W fluorescent bulb) was positioned 2 m above the experimental chamber. Baseline, control experiments were conducted several days before the actual experiments. Only those animals whose cumulative duration of immobility during the 6 min. observation was no less than 100 sec. were selected for further experiments. Three animals were tested simultaneously. Each experimental group was composed of at least nine animals. […] Nifedipine was injected in a dose (5 mg/kg, i.p.) which, by itself, has no effect on the duration of immobility ([…] and Oxenkrug, 1998). […] Results were expressed as mean±S.D. (sec.) and statistically treated by ANOVA and Student t-test.

mouse = mouse tail suspension test; cited from earlier work

For `COC(=O)Nc1ccc2[nH]cc(CCNC(C)=O)c2c1` [5-MCA-NAT, 5-methoxy-carbonylamino-N-acetyltryptamine], the “affinity or efficacy for other melatonin receptors” value [1] is given as “low affinity or efficacy”, the “affinity for MT-3 melatonin sites” value [2] is given as “high affinity” and the duration of immobility (C57BL/6J mice; 5-MCA-NAT 10 mg/kg i.p., 30 min before testing, 6 min observation) is given as “did not affect the duration of immobility”. The duration of immobility (C57BL/6J mice; 5-MCA-NAT 25 mg/kg i.p., 30 min before testing, 6 min observation) was “decreased the duration of immobility”, the duration of immobility (C57BL/6J mice; 5-MCA-NAT 50 mg/kg i.p., 30 min before testing, 6 min observation) was “decreased the duration of immobility” and the duration of immobility (C57BL/6J mice; combination: 5-MCA-NAT 10 mg/kg i.p. with nifedipine 5 mg/kg i.p. injected 15 min after) was “decreased the duration of immobility”.

For `COc1ccc2[nH]cc(CCNC(C)=O)c2c1` [Melatonin, N-acetyl-5-methoxytryptamine], the antidepressant-like activity (mouse) is given as “antidepressant-like activity”.

With `COc1cc2nc(N3CCN(C(=O)c4ccco4)CC3)nc(N)c2cc1OC` [Prazocin, reference compound] the duration of immobility (C57BL/6J mice; prazocin 0.5 mg/kg alone) was “did not affect the duration of immobility” and the “effect on decrease of immobility induced by 5-MCA-NAT” value (C57BL/6J mice; prazocin 0.5 mg/kg injected 15 min before 5-MCA-NAT 50 mg/kg) was “prevented decrease of immobility”.
